Results: patent publication US11583531B2, “Solid forms of a toll-like receptor modulator” (Gilead Sciences, Inc., priority 2019, dated 2023)

Test: Dynamic vapor sorption (moisture sorption/desorption)
Type: physicochemical
Conditions: for solid form after the DVS experiment (form stability): post-DVS analysis, 5% to 95% RH cycle; for water absorbed (dynamic vapor sorption): up to 95% RH at 25° C.
Method: Moisture sorption/desorption data were collected on a VTI SGA-100 Vapor Sorption Analyzer. NaCl and PVP were used as calibration standards. Samples were not dried prior to analysis. Sorption and desorption data were collected over a range from 5% to 95% RH at 10% RH increments under a nitrogen purge. The equilibrium criterion used for analysis was less than 0.0100% weight change in 5 minutes with a maximum equilibration time of 3 hours. Weight percentages reported in the data section are relative to the total sample mass introduced prior to equilibration at 5% RH as measured on the instrument.

| Compound | solid form after the DVS experiment (form stability) | water absorbed (dynamic vapor sorption) | other results |
| --- | --- | --- | --- |
| CCCC[C@](C)(CO)Nc1nc(N)nc2cc(F)cnc12 [Compound I Form I, (R)-2-((2-amino-7-fluoropyrido[3,2-d]pyrimidin-4-yl)amino)-2-methylhexan-1-ol] | not have changed forms | about 0.89% | – |
| CCCC[C@](C)(CO)Nc1nc(N)nc2cc(F)cnc12.O=C(O)/C=C/C(=O)O [Compound I Fumaric Acid, (R)-2-((2-amino-7-fluoropyrido[3,2-d]pyrimidin-4-yl)amino)-2-methylhexan-1-ol fumaric acid] | not have changed forms | about 2.3% | – |
| CCCC[C@](C)(CO)Nc1nc(N)nc2cc(F)cnc12.Cl [Compound I HCl Form I, (R)-2-((2-amino-7-fluoropyrido[3,2-d]pyrimidin-4-yl)amino)-2-methylhexan-1-ol hydrochloride] | – | – | hygroscopicity by dynamic vapor sorption (5% to 95% RH): hygroscopic; further weight loss, desorption curve (below 65% RH down to 5% RH): No further weight % loss was observed; weight gain, sorption cycle (between 5% and 55% RH): approximately 0.6%; weight gain, sorption cycle (between 65% RH and 95% RH): approximately 28.1%; weight loss, desorption curve (between 85% and 65% RH): 1.8%; weight loss, desorption curve (from 95% to 85% RH): approximately 11.2%; solid form after the DVS experiment (form stability) (hydrochloride): composed of a new crystalline material, designated Compound I Hydrochloride Form II |
| CCCC[C@](C)(CO)Nc1nc(N)nc2cc(F)cnc12.Cl [Compound I HCl Form II, (R)-2-((2-amino-7-fluoropyrido[3,2-d]pyrimidin-4-yl)amino)-2-methylhexan-1-ol hydrochloride] | – | – | weight gain, sorption cycle (from 5% to 95% RH): approximately 19.8%; solid form after the DVS experiment (form stability) (hydrochloride): not have changed forms |
| CCCC[C@](C)(CO)Nc1nc(N)nc2cc(F)cnc12.O=C(O)/C=C\C(=O)O [Compound I Maleic Acid, (R)-2-((2-amino-7-fluoropyrido[3,2-d]pyrimidin-4-yl)amino)-2-methylhexan-1-ol maleic acid] | not have changed forms | about 0.11% | – |
| CCCC[C@](C)(CO)Nc1nc(N)nc2cc(F)cnc12.CS(=O)(=O)O [Compound I Methanesulfonic Acid, (R)-2-((2-amino-7-fluoropyrido[3,2-d]pyrimidin-4-yl)amino)-2-methylhexan-1-ol methanesulfonic acid] | not have changed forms | about 38% | – |
| CCCC[C@](C)(CO)Nc1nc(N)nc2cc(F)cnc12.O=C(O)C(O)C(O)C(=O)O [Compound I Tartaric Acid, (R)-2-((2-amino-7-fluoropyrido[3,2-d]pyrimidin-4-yl)amino)-2-methylhexan-1-ol tartaric acid] | not have changed forms | about 1.5% | – |
